Data taken from ChEMBL document CHEMBL1138616, “Molecular design, synthesis and docking study of benz[b]oxepines and 12-oxobenzo[c]phenanthridinones as topoisomerase 1 inhibitors” (Bioorg Med Chem Lett, 2009).
pIC50: −log10 of the molar value. Activity calls are given as the source filed them. The rule behind the calls is not given here.

Key:
[1] = test system: A549; test: Cytotoxicity against human A549 cells by sulforhodamine B assay; assay type: functional, cell-based
[2] = test system: HL-60; test: Cytotoxicity against human HL60 cells by sulforhodamine B assay; assay type: functional, cell-based
[3] = test system: HeLa; test: Cytotoxicity against human HeLa cells by sulforhodamine B assay; assay type: functional, cell-based
[4] = biological target: T1, DNA topoisomerase 1 (Homo sapiens) (UniProt P11387); test: Inhibition of DNA topoisomerase 1 assessed as relaxation of supercoiled Escherichia coli pBR322 DNA at 100 uM
T1 sequence (whole entry): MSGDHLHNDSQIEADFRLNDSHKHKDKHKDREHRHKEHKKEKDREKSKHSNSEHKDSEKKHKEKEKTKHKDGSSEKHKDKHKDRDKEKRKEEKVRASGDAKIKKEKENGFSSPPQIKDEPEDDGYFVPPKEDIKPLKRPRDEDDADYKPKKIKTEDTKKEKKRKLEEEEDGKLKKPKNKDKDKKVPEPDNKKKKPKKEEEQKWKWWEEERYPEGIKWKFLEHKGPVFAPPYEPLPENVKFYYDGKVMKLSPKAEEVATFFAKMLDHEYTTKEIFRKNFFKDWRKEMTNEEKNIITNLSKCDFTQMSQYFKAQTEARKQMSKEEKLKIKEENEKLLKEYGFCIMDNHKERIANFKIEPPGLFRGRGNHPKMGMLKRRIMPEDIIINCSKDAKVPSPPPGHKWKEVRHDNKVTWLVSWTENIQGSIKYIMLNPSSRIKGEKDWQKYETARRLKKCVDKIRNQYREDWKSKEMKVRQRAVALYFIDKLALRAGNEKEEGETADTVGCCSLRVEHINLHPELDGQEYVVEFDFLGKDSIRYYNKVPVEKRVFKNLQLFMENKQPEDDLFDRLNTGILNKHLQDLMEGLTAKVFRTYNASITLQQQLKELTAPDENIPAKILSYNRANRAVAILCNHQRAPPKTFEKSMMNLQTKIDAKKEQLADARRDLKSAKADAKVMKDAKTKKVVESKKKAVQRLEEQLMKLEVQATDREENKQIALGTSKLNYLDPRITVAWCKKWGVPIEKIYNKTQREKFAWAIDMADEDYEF

| SMILES | pIC50 [1] | pIC50 [2] | pIC50 [3] | inhibition [4] |
| --- | --- | --- | --- | --- |
| COc1ccc(Cn2c(-c3ccccc3O)c(Br)c3ccccc3c2=O)cc1 | 4.15 | 4.50 | 4.43 | inactive |
| COCOc1ccccc1-c1c(Br)c2ccc(C)cc2c(=O)n1C | 4.09 | 4.77 | 4.75 | inactive |
| COCOc1ccccc1-c1cc2ccccc2c(=O)[nH]1 | 4.63 | 6.21 | 6.21 | inactive |
| COCOc1ccccc1-c1c(Br)c2cc(OC)c(OC)cc2c(=O)n1C | < 4.00 | 4.42 | 4.00 | 40.7% |
| COc1ccc(Cn2c3c(c4ccccc4c2=O)CCOc2ccccc2-3)cc1 | 4.96 | 5.35 | 5.32 | 94.5% |
| COCOc1ccccc1-c1cc2cc(C)ccc2c(=O)n1C | 4.00 | 4.85 | 4.54 | inactive |
| COc1cc2c3c(n(C)c(=O)c2cc1OC)-c1ccccc1OC3C (stereo unspecified) | 4.86 | 5.07 | 5.04 | 5.3% |
| COc1ccc(Cn2c3c(c4ccc(C)cc4c2=O)CCOc2ccccc2-3)cc1 | 5.34 | 5.36 | 5.34 | inactive |
| C=COc1ccccc1-c1c(Br)c2cc(C)ccc2c(=O)n1Cc1ccc(OC)cc1 | 4.17 | 4.54 | 4.83 | inactive |
| CC[C@@]1(O)C(=O)OCc2c1cc1n(c2=O)Cc2cc3ccccc3nc2-1 [CAMPTOTHECIN] | 7.24 | 7.05 | 7.14 |  |
| COc1cc2c3c(n(C)c(=O)c2cc1OC)-c1ccccc1OCC3 | 4.14 | 4.46 | 4.42 | 98.2% |
| C=COc1ccccc1-c1c(Br)c2ccccc2c(=O)n1Cc1ccc(OC)cc1 | < 4.00 | 4.23 | 4.44 | inactive |
| Cc1ccc2c3c(n(C)c(=O)c2c1)-c1ccccc1OCC3 | 4.52 | 4.85 | 5.06 | 11.9% |
| Cn1c2c(c3ccccc3c1=O)CCOc1ccccc1-2 | 4.18 | 4.42 | 4.71 | inactive |
| Cc1ccc2c3c(n(C)c(=O)c2c1)-c1ccccc1OC3C (stereo unspecified) | 4.17 |  | 4.66 | inactive |
| COCOc1ccccc1-c1cc2ccccc2c(=O)n1C | < 4.00 | 4.23 | 4.19 | inactive |
| CC1Oc2ccccc2-c2c1c1ccccc1c(=O)n2C (stereo unspecified) | 4.18 | 4.52 | 4.40 | inactive |
| COCOc1ccccc1-c1cc2cc(C)ccc2c(=O)[nH]1 | < 4.00 | 6.80 | 6.77 | inactive |
| COc1ccc(Cn2c(-c3ccccc3O)c(Br)c3cc(C)ccc3c2=O)cc1 | 4.28 | 4.61 | 4.69 | inactive |
| Cc1ccc2c(=O)n(C)c3c(c2c1)C(C)Oc1ccccc1-3 (stereo unspecified) | 4.34 | 4.54 | 4.55 | 30.4% |
| COc1ccc(Cn2c3c(c4cc(C)ccc4c2=O)CCOc2ccccc2-3)cc1 | < 4.00 | 5.03 | 4.99 | inactive |
| Cc1ccc2c(=O)n(C)c3c(c2c1)CCOc1ccccc1-3 | 4.21 | 4.47 | 4.38 | inactive |
